The values below come from PubChem BioAssay AID330 (DTP/NCI, 2004).

This experiment has as its system P388 leukemia ip, CD2F1 mice, survival T/C. The experiment in a line: NCI In Vivo Anticancer Drug Screen. Data for tumor model P388 Leukemia (intraperitoneal) in CD2F1 (CDF1) mice. To be noted: endpoint: median survival time, higher = longer survival. In outline: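 Mice carrying the transplanted tumor received test compound or vehicle. Survival was recorded in each group, and the value is the treated-group measurement divided by that of the vehicle-treated control group.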

Setting [1] is: dose: 25.0 mg/kg/injection, schedule: Q01DX005 (ip), vehicle: Klucel (hydroxypropylcellulose) (HPC).
Where [2] appears, read: dose: 100.0 mg/kg/injection, schedule: Q01DX001 (ip), vehicle: Klucel (hydroxypropylcellulose) (HPC).
Setting [3] is: dose: 100.0 mg/kg/injection, schedule: Q01DX009 (ip), vehicle: saline with Tween-80.
Setting [4] is: dose: 50.0 mg/kg/injection, schedule: Q01DX005 (ip), vehicle: saline with Tween-80.
[5] abbreviates: dose: 50.0 mg/kg/injection, schedule: Q01DX005 (ip), vehicle: Klucel (hydroxypropylcellulose) (HPC).
[6] abbreviates: dose: 100.0 mg/kg/injection, schedule: Q01DX005 (ip), vehicle: Klucel (hydroxypropylcellulose) (HPC).
The mark [7] stands for this setting: dose: 200.0 mg/kg/injection, schedule: Q01DX005 (ip), vehicle: Klucel (hydroxypropylcellulose) (HPC).
[8] abbreviates: dose: 3.13 mg/kg/injection, schedule: Q01DX009 (ip), vehicle: saline with Tween-80.
The mark [9] stands for this setting: dose: 6.25 mg/kg/injection, schedule: Q01DX009 (ip), vehicle: saline with Tween-80.
[10] abbreviates: dose: 12.5 mg/kg/injection, schedule: Q01DX009 (ip), vehicle: saline with Tween-80.
Where [11] appears, read: dose: 25.0 mg/kg/injection, schedule: Q01DX009 (ip), vehicle: saline with Tween-80.
Setting [12] is: dose: 50.0 mg/kg/injection, schedule: Q01DX009 (ip), vehicle: saline.
The mark [13] stands for this setting: dose: 100.0 mg/kg/injection, schedule: Q01DX009 (ip), vehicle: saline.

Each structure is given as a SMILES string. Several values for one entry are separate records, joined by “and”; a condition that tells them apart may be missing. Identical values can stand only once. Inconclusive results and toxic doses are left out.

As for `O=C(NCCCl)Oc1cc(Cl)c(Cl)cc1Cl`, the T/C is, setting by setting: (dose: 12.5 mg/kg/injection, schedule: Q01DX005 (ip), vehicle: Klucel (hydroxypropylcellulose) (HPC)) 120 % of control; under setting [1], 111 % of control; under setting [2], 102 % of control.
With `CC(=O)[C@@]1(O)CC[C@H]2[C@@H]3C[C@H](C)C4=CC(=O)CC[C@]4(C)[C@H]3[C@@H](O)C[C@@]21C`, the T/C by setting is: (dose: 66.0 mg/kg/injection, schedule: Q01DX009 (ip), vehicle: saline with Tween-80) 100 % of control; under setting [3], 100 % of control; (dose: 150.0 mg/kg/injection, schedule: Q01DX009 (ip), vehicle: saline with Tween-80) 104 % of control.
On to `NC(=S)N/N=C1/C(=O)N(C2CCCCCC2)C(=O)C1C(=O)NC1CCCCCC1` (stereo unspecified), for which the T/C is, setting by setting: (dose: 12.5 mg/kg/injection, schedule: Q01DX005 (ip), vehicle: saline with Tween-80) 105 % of control; (dose: 25.0 mg/kg/injection, schedule: Q01DX005 (ip), vehicle: saline with Tween-80) 99 % of control; under setting [4], 104 % of control and 90 % of control.
Consider `O=C1c2ccccc2C(=O)c2c(-c3ccc(Cl)cc3)noc21`, for which the T/C was 94 % of control under setting [5], 93 % of control under setting [6] and 90 % of control under setting [7].
As to `C1CC[N-]CC1.C1CC[N-]CC1.C1CC[N-]CC1.C1CC[N-]CC1.[Cl][Rh][Cl]`, the T/C reads like this: under setting [8], 120 % of control; (dose: 4.0 mg/kg/injection, schedule: Q01DX009 (ip), vehicle: saline) 118 % of control; under setting [9], 120 % of control and 123 % of control; under setting [10], 120 % of control; under setting [11], 92 % of control.
`CSC(C#N)(Cc1ccccc1)N1CCOCC1` (stereo unspecified): the T/C runs as follows: (dose: 100.0 mg/kg/injection, schedule: Q04DX003 (ip), vehicle: saline with Tween-80) 107 % of control; (dose: 200.0 mg/kg/injection, schedule: Q04DX003 (ip), vehicle: saline with Tween-80) 103 % of control; (dose: 400.0 mg/kg/injection, schedule: Q04DX003 (ip), vehicle: saline with Tween-80) 103 % of control.
Regarding `Cc1nc(N)nc(N)c1N1CCN(c2ccc(C(=O)NC(CCC(=O)O)C(=O)O)cc2)CC1` (stereo unspecified), the T/C by setting is: (dose: 1.56 mg/kg/injection, schedule: Q01DX005 (ip), vehicle: water) 111 % of control; (dose: 12.5 mg/kg/injection, schedule: Q01DX005 (ip), vehicle: distilled water + Tween-80) 168 % of control; (dose: 12.5 mg/kg/injection, schedule: Q01DX005 (ip), vehicle: water) 150 % of control; (dose: 25.0 mg/kg/injection, schedule: Q01DX005 (ip), vehicle: distilled water + Tween-80) 176 % of control; (dose: 25.0 mg/kg/injection, schedule: Q01DX005 (ip), vehicle: water) 176 % of control; (dose: 50.0 mg/kg/injection, schedule: Q01DX005 (ip), vehicle: water) 222 % of control. Besides, the T/C (dose: 100.0 mg/kg/injection, schedule: Q01DX005 (ip), vehicle: distilled water + Tween-80) is 87 % of control.
Take `Cc1cccc(C(O)(c2cccc(C)c2)C2(O)CCN(C)CC2)c1`: the T/C by setting is: under setting [1], 98 % of control; under setting [5], 98 % of control; under setting [6], 102 % of control.
Turning to `CN(C)C(=O)C(=O)C1C=Cc2ccccc21` (stereo unspecified), the T/C is 100 % of control under setting [3]; 90 % of control (dose: 200.0 mg/kg/injection, schedule: Q01DX009 (ip), vehicle: saline with Tween-80); 95 % of control (dose: 400.0 mg/kg/injection, schedule: Q01DX009 (ip), vehicle: saline with Tween-80).
On to `C[N+]1(CSC(=O)c2ccccc2)CCCCC1`, for which the T/C runs as follows: (dose: 3.12 mg/kg/injection, schedule: Q01DX009 (ip), vehicle: saline) 110 % of control; (dose: 6.25 mg/kg/injection, schedule: Q01DX009 (ip), vehicle: saline) 114 % of control; under setting [10], 115 % of control and 91 % of control; (dose: 12.5 mg/kg/injection, schedule: Q01DX009 (ip), vehicle: saline) 107 % of control and 110 % of control; (dose: 50.0 mg/kg/injection, schedule: Q01DX009 (ip), vehicle: saline with Tween-80) 100 % of control and 116 % of control.
For the molecule `CC1(C)CC(C)(O)N(CCc2ccccc2)C(=S)N1` (stereo unspecified), the T/C was 106 % of control under setting [5], 98 % of control under setting [6] and 98 % of control under setting [7].
Consider `Cn1cc(-c2ccc3c(c2)OCO3)c2ccccc21`, for which the T/C is, setting by setting: (dose: 60.0 mg/kg/injection, schedule: Q01DX005 (ip), vehicle: saline with Tween-80) 100 % of control; (dose: 120.0 mg/kg/injection, schedule: Q01DX005 (ip), vehicle: saline with Tween-80) 100 % of control; (dose: 240.0 mg/kg/injection, schedule: Q01DX005 (ip), vehicle: saline with Tween-80) 101 % of control.
On to `O=C(O)Cc1cn2ccccc2n1`, for which the T/C runs as follows: under setting [2], 96 % of control; (dose: 200.0 mg/kg/injection, schedule: Q01DX001 (ip), vehicle: Klucel (hydroxypropylcellulose) (HPC)) 100 % of control; (dose: 400.0 mg/kg/injection, schedule: Q01DX001 (ip), vehicle: Klucel (hydroxypropylcellulose) (HPC)) 93 % of control.
As for `O[C@H](c1cc(C(F)(F)F)nc2c(C(F)(F)F)cccc12)[C@@H]1CCCCN1`, the T/C was 109 % of control under setting [8], 102 % of control under setting [9], 116 % of control under setting [10] and 106 % of control under setting [11].
Consider `S=C1CC(N2CCCC2)=Nc2ccccc2N1`, for which the T/C by setting is: under setting [5], 100 % of control; under setting [6], 90 % of control; under setting [7], 95 % of control.
Take `CS/C(=N/S(=O)(=O)c1ccccc1)NNC(=S)Nc1ccc(C(C)C)cc1`: the T/C reads like this: under setting [12], 94 % of control; under setting [13], 97 % of control; (dose: 200.0 mg/kg/injection, schedule: Q01DX009 (ip), vehicle: saline) 97 % of control.
On to `COc1ccc2c(c1OC)C(C(Cl)(Cl)Cl)N1CCc3cc4c(cc3C1=C2C=O)OCO4` (stereo unspecified), for which the T/C runs as follows: under setting [4], 98 % of control; (dose: 100.0 mg/kg/injection, schedule: Q01DX005 (ip), vehicle: saline with Tween-80) 90 % of control; (dose: 200.0 mg/kg/injection, schedule: Q01DX005 (ip), vehicle: saline with Tween-80) 90 % of control.
As to `c1ccc(C(c2ccccc2)[P+](c2ccccc2)(c2ccccc2)c2ccccc2)cc1`, the T/C by setting is: (dose: 0.15 mg/kg/injection, schedule: Q01DX009 (ip), vehicle: Klucel (hydroxypropylcellulose) (HPC)) 101 % of control; (dose: 0.31 mg/kg/injection, schedule: Q01DX009 (ip), vehicle: Klucel (hydroxypropylcellulose) (HPC)) 109 % of control and 114 % of control; (dose: 0.63 mg/kg/injection, schedule: Q01DX009 (ip), vehicle: Klucel (hydroxypropylcellulose) (HPC)) 111 % of control; (dose: 1.25 mg/kg/injection, schedule: Q01DX009 (ip), vehicle: Klucel (hydroxypropylcellulose) (HPC)) 118 % of control and 123 % of control and 86 % of control.
For `CCOC([O-])=N/C(=N/[n+]1ccccc1)c1ccccc1`, the T/C by setting is: (dose: 50.0 mg/kg/injection, schedule: Q01DX009 (ip), vehicle: Klucel (hydroxypropylcellulose) (HPC)) 107 % of control; (dose: 100.0 mg/kg/injection, schedule: Q01DX009 (ip), vehicle: Klucel (hydroxypropylcellulose) (HPC)) 96 % of control; (dose: 200.0 mg/kg/injection, schedule: Q01DX009 (ip), vehicle: Klucel (hydroxypropylcellulose) (HPC)) 100 % of control.
`CC1(C)N=C(N)N=C(N)N1c1ccc(OCC(=O)N2CCOCC2)c(Cl)c1`: the T/C was 109 % of control (dose: 25.0 mg/kg/injection, schedule: Q01DX009 (ip), vehicle: saline); 116 % of control under setting [12]; 107 % of control under setting [13]; 113 % of control (dose: 100.0 mg/kg/injection, schedule: Q04DX003 (ip), vehicle: saline sonified).
Consider `COc1ccc2cc3[nH]c(=O)cc(O)c3cc2c1OC`, for which the T/C reads like this: (dose: 12.5 mg/kg/injection, schedule: Q01DX009 (ip), vehicle: other) 96 % of control; (dose: 25.0 mg/kg/injection, schedule: Q01DX009 (ip), vehicle: other) 106 % of control; (dose: 50.0 mg/kg/injection, schedule: Q01DX009 (ip), vehicle: other) 101 % of control; (dose: 100.0 mg/kg/injection, schedule: Q01DX009 (ip), vehicle: other) 89 % of control; (dose: 200.0 mg/kg/injection, schedule: Q01DX009 (ip), vehicle: other) 89 % of control.
